Test results reported in patent US12678514B2, “Algae-based microrobot for drug delivery” (priority 2023, dated 2026).
≈ marks a conversion by molar mass, not a printed value.

Assays:
P. aeruginosa = experiment: In vitro antibacterial activity (MIC, minimal bactericidal concentration); format: cell-based, Pseudomonas aeruginosa; details: CFU enumeration
[1] = In vivo safety evaluation of algae-NP(DOX)-robot; design: species or system C57BL/6 mice
Protocol: In vivo toxicity assessment of algae-NP(DOX)-robot. Finally, the toxicity profile of the algae-NP(DOX)-robot was assessed. Healthy mice were subjected to intratracheal administration using one of three different treatments: algae-NP(DOX)-robot, free DOX, and NP(DOX). Each mouse received a total of four 75-μg DOX doses given every other day. A blood count and a comprehensive metabolic panel were performed one day after the final injection to assess the effects of these treatments.
In vivo safety evaluation. Healthy female C57BL/6 mice were intratracheally administered with free DOX, NP(DOX) and algae-NP(DOX)-robot every other day for a total of four injections. Mice without treatment were used as controls. At 24 h following the last treatment, blood samples were collected via submandibular puncture into Microvette 100 EDTA K3E tubes (Sarstedt) for blood cell quantification. To collect serum for comprehensive blood chemistry analysis, blood samples were obtained without any anticoagulant, placed at room temperature for 30 min, and centrifuged at 3000 g for 10 min. Both the blood cell quantification and blood chemistry analyses were performed by the Animal Care Program Diagnostic Services Laboratory at UCSD. For histological analysis, the heart, liver, spleen, lungs and kidneys were excised and fixed in phosphate-buffered 10% formalin (Fisher Chemical), followed by sectioning and hematoxylin and eosin staining. These histological procedures were conducted by the Moores Cancer Center Tissue Technology Shared Resource.

[2] = system: B16-F10-Luc2 melanoma lung metastasis; experiment: In vivo efficacy in a lung metastasis model; design: species or system C57BL/6 mice
Source text: This model was established by intravenously injecting 1×10^5 B16-F10-Luc2 cells through the tail vein of C57BL/6 mice. The treatment regimen consisted of four 75-μg DOX doses given every other day, with the first dose administered one day after the tumor challenge. […] We also quantified the overall lung metastasis burden based on the bioluminescence intensity in the lungs (FIG. 16d). […] Additionally, we monitored for changes in body weight during the entire treatment period (FIG. 16g).
In vivo efficacy in a lung metastasis model. […] The mice received treatment with free DOX, NP(DOX) and algae-NP(DOX)-robot through intratracheal instillation on days 1, 3, 5 and 7 after tumor cell inoculation. Mice without treatment were used as controls. To monitor tumor growth, on days 12, 16, 20, 24 and 28 after tumor cell inoculation, the mice were intraperitoneally administered 200 μl of 5 mg ml^−1 D-luciferin (Syd Labs) in DPBS (Gibco). Bioluminescence signals were detected using a PerkinElmer Xenogen IVIS 200 system. The body weight and survival of each mouse were also monitored throughout the study.

SMILES | minimal bactericidal concentration (P. aeruginosa) | liver and kidney biomarkers (ALB, ALP, ALT, BUN, TBIL, CRE) ([1]; four 75-μg DOX doses, one day after final dose) | histology of heart, liver, spleen, lungs and kidneys ([1]; mouse, in vivo) | other biomarkers (CA, GLU, PHOS, K+, Na+, TP) ([1]; mouse, in vivo) | white blood cells, red blood cells and platelets ([1]; mouse, in vivo) | median survival time ([2]; four 75-μg DOX doses intratracheal) | body weight during treatment ([2]; mouse, in vivo)
O=C(O)c1cn(C2CC2)c2cc(N3CCNCC3)c(F)cc2c1=O [free Cip, ciprofloxacin] | 0.125 µg/mL (≈ 0.377 µM) | – | – | – | – | – | –
COc1cccc2c1C(=O)c1c(O)c3c(c(O)c1C2=O)C[C@@](O)(C(=O)CO)C[C@@H]3O[C@H]1C[C@H](N)[C@H](O)[C@H](C)O1 [free DOX, doxorubicin] | – | no abnormalities | no observable damage | within their normal ranges | elevated platelet levels | 27 days | pronounced decline in body weight
